Test results published in article PMC4309955 (Scientific Reports, 2015).

Key:
[1] = target: T1, human AT1R (angiotensin II type 1 receptor) (Homo sapiens, UniProt P30556); experiment: inhibition of AngII-induced beta-arrestin activation, cell impedance; format: cell-based
T1 sequence (P30556 1-359): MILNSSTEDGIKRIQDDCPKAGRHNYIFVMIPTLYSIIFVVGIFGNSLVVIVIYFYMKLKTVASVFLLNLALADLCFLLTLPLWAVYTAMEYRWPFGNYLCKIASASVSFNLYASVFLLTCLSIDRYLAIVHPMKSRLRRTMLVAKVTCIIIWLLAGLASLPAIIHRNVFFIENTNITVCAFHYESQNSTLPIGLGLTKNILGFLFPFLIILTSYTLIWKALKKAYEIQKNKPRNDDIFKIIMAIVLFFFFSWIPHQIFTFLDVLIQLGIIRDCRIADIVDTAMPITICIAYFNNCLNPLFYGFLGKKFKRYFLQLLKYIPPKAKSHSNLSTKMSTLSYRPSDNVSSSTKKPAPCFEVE

[2] = target: T1, human AT1R (angiotensin II type 1 receptor); experiment: inhibition of AngII-induced G protein activation, cell impedance; format: cell-based

Row | IC50 [1] | IC50 [2] | Structure (SMILES)
1 | 1.6 nM | 1.6 nM | CCOc1nc2cccc(C(=O)O)c2n1Cc1ccc(-c2ccccc2-c2noc(=O)[nH]2)cc1 [Azilsartan]
2 | 20.4 nM | 14.5 nM | CCCc1nc(C(C)(C)O)c(C(=O)O)n1Cc1ccc(-c2ccccc2-c2nnn[nH]2)cc1 [Olmesartan]
3 | 7.5 nM | 4.7 nM | CCCCc1ncc(/C=C(\Cc2cccs2)C(=O)O)n1Cc1ccc(C(=O)O)cc1 [Eprosartan]
4 | 0.7 nM | 2 nM | CCOc1nc2cccc(C(=O)O)c2n1Cc1ccc(-c2ccccc2-c2nnn[nH]2)cc1 [Candesartan]
